Laboratory results taken from patent publication US10047063B2, “Method for improving the oxygen-releasing ability of hemoglobin to organs or peripheral tissues in human bodies and a medication thereof” (NATIONAL SUN YAT-SEN UNIVERSITY, priority 2014, dated 2018).

Experiments:
Assay type in all cases: biochemical
[1] = target: fetal hemoglobin (α2γ2, HbF) (Homo sapiens, UniProt P69905); assay: Resonance Raman spectroscopy: percentage of "R" state of oxygenated fetal hemoglobin treated with compounds; conditions: oxygen atmosphere
Chain of fetal hemoglobin (α2γ2, HbF) (P69905 2-142 limits assumed): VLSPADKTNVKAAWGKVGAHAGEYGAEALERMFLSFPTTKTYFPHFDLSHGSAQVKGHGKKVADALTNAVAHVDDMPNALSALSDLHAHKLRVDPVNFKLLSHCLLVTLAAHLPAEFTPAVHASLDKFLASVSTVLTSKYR
Chain of fetal hemoglobin (α2γ2, HbF) (P69892 2-147 partner limits assumed): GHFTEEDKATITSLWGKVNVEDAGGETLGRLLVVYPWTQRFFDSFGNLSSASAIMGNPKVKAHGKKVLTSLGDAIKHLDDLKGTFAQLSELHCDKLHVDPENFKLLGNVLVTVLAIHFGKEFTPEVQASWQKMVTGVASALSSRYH
Excerpt: In order to evaluate the effect of the compound of phthalides on stabilizing the oxygenated hemoglobin variants in the low oxygen affinity “T” state, compounds including 2,3-bisphosphoglycerate (group A0), Z-butylidenephthalide (group A1), Z-ligustilide (group A2), senkyunolide A (group A3), senkyunolide H (group A4) and senkyunolide I (group A5) are mixed with fetal hemoglobin (α2γ2, HbF) as a representative hemoglobin variant which is also a potential hemoglobin-based blood substitute, followed by the resonance Raman spectroscopy measurements under the oxygen atmosphere. The percentages of the high oxygen affinity “R” state of fetal hemoglobin treated with 2,3-bisphosphoglycerate (shown in FIG. 3a) and various phthalide phyto-compounds (shown in FIGS. 3b to 3f) are also analyzed from the resonance Raman spectroscopy measurements, following the same spectral analysis procedures as that of normal hemoglobin.

hemoglobin [2] = target: T1, hemoglobin (Homo sapiens, UniProt P68871+P69905); assay: Oxygen equilibrium curve (OEC) measurement, P50 of treated hemoglobin
T1 sequence (P69905 2-142 limits assumed): as the sequence (P69905 2-142 limits assumed) above
T1 sequence (P68871 2-147 limits assumed): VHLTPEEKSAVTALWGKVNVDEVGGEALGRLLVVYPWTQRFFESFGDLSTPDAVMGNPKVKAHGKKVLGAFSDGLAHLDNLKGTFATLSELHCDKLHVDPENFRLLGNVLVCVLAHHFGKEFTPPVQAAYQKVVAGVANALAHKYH
Excerpt: FIG. 4a is a diagram illustrating the oxygen equilibrium curve (OEC) of hemoglobin treated with 2,3-bisphosphoglycerate with a molar ratio to Hb of 1.0 (dash black curve). The OEC of pure hemoglobin (solid black curve) is also shown as the reference. The P50 value derived from the OEC for pure hemoglobin and for Hb treated with 2,3-bisphosphoglycerate are 12.6 and 16.4±1 mmHg, respectively.
To evaluate the effect of the compound of phthalides on reducing the oxygen affinity and thus promoting the oxygen release, the oxygen equilibrium curves (OEC) for hemoglobin treated with 2,3-bisphosphoglycerate (solid black curve in FIG. 4a) and Z-butylidenephthalide (Z-butylidenephthalide-to-Hb molar ratio of: 0.2, solid black curve; 0.5, dash-dot black curve; 0.8, dot black curve in FIG. 4b), are measured in comparison with that of pure hemoglobin (dash black curves in FIGS. 4a and 4b).
From the oxygen equilibrium measurements, the P50 values of hemoglobin treated compounds, including Z-butylidenephthalide, Z-ligustilide and senkyunolide A are obtained, as shown in FIGS. 5a to 5c. P50, defined as the oxygen partial pressure required for 50% of Hb to become oxygenated or deoxygenated, is a direct measure of oxygen affinity for hemoglobin, which increases with decreasing oxygen affinity.

hemoglobin [3] = target: T1, hemoglobin; assay: Resonance Raman spectroscopy: percentage of high oxygen affinity "R" state of oxygenated hemoglobin treated with compounds; conditions: varying mole ratio to Hb tetramer, 532 nm excitation, oxygen atmosphere
Excerpt: In order to evaluate the effect of the compound of Formula I on stabilizing the oxygenated hemoglobin in the low oxygen affinity “T” state, compounds including 2,3-bisphosphoglycerate (group A0), Z-butylidenephthalide (group A1), Z-ligustilide (group A2), senkyunolide A (group A3), senkyunolide H (group A4) and senkyunolide I (group A5) are mixed with hemoglobin as a function of their mole ratio to hemoglobin, followed by the resonance Raman spectroscopy measurements at 532 nm excitation wavelength under the oxygen atmosphere. The percentages of the high oxygen affinity “R” state for hemoglobin treated with 2,3-bisphosphoglycerate (shown in FIG. 2a, as reference) and various phthalide phyto-compounds (shown in FIGS. 2b to 2f) are analyzed from the resonance Raman spectroscopy measurements. In more specific, the percentage of high oxygen affinity “R” state for each treated hemoglobin was obtained by fitting a simulated spectrum comprised of adjustable weighing factors of the T and R states of pure hemoglobin to the obtained resonance Raman spectrum of treated hemoglobin. […]

[4] = effector-to-Hb mole ratio of 0.8 (Level II), pure hemoglobin 12.6±1

Structure (SMILES): CCC/C=C1\OC(=O)c2ccccc21 [Z-butylidenephthalide]
- effect on relative ratio of high oxygen affinity "R" state of fetal hemoglobin [1]: can stabilize the low oxygen affinity “T” state
- P50 of hemoglobin treated with compound (hemoglobin [2]; [4]): 17.4 mmHg

Structure (SMILES): CCC/C=C1\OC(=O)C2=C1CCC=C2 [Z-ligustilide]
- effect on relative ratio of high oxygen affinity "R" state of fetal hemoglobin [1]: can stabilize the low oxygen affinity “T” state
- P50 of hemoglobin treated with compound (hemoglobin [2]; [4]): 15.9 mmHg

Structure (SMILES): CCC/C=C1\OC(=O)C2=C1CC[C@@H](O)[C@@H]2O [senkyunolide I]
- effect on relative ratio of high oxygen affinity "R" state of fetal hemoglobin [1]: can stabilize the low oxygen affinity “T” state
- P50 of hemoglobin treated with compound (hemoglobin [2]; [4]): 15.2±1 mmHg

Structure (SMILES): CCC/C=C1\OC(=O)C2=C1CC[C@@H](O)[C@H]2O [senkyunolide H]
- effect on relative ratio of high oxygen affinity "R" state of fetal hemoglobin [1]: can stabilize the low oxygen affinity “T” state

Structure (SMILES): O=C(O)C(COP(=O)(O)O)OP(=O)(O)O (centres unmarked) [2,3-bisphosphoglycerate, reference compound]
- effect on relative ratio of high oxygen affinity "R" state of fetal hemoglobin [1]: no effect
- "R" state suppression efficiency (hemoglobin [3]): about 20%
- P50 of hemoglobin treated with compound (hemoglobin [2]; molar ratio to Hb of 1.0, pure hemoglobin 12.6): 16.4±1 mmHg

Structure (SMILES): CCCC[C@@H]1OC(=O)C2=C1CCC=C2 [senkyunolide A]
- effect on relative ratio of high oxygen affinity "R" state of fetal hemoglobin [1]: can stabilize the low oxygen affinity “T” state
